The test system of test [1] is tracheal phenol red excretion amount in mice. Put plainly: Phlegm-reducing effect (tracheal phenol red excretion). To be noted: x ± s, n=16. Format: in vivo, Kunming mice. From the text: Test animals: Kunming mice (body weight 18-22 g, half male and half female), purchased from Beijing Vital River Laboratory Animal Technology Co., Ltd. Test reagent: Ammonium chloride (Guangzhou Chemical Reagent Factory). The devices were the same as in Test Example 1. According to the method of LI Yikui's phlegm-reducing test, the mice were fed normally for 3 days, and then randomly grouped into blank control group, compound of the present invention group, and ammonium chloride-positive control group. […] The phenol red excretion amount was calculated from the phenol red standard curve, and the significance of the difference between the groups was compared. Statistical method: data analysis of the experimental data was carried out with SPSS 10.0 statistical software, and t-test was used for comparison between groups.

The test system of test [2] is aqueous ammonia-induced cough in mice. Put plainly: Aqueous ammonia-induced cough test. Format: in vivo, Kunming mice. To be noted: x ± s, n=16. From the text: Test animals: Kunming mice (body weight 18-22 g, half male and half female), purchased from Beijing Vital River Laboratory Animal Technology Co., Ltd., with Certificate No.: SCXK-(Beijing)2012-001.
(§1) Test reagent: Codeine phosphate (Europharm Laboratoires Co., Ltd.).
Device: YC-Y800 Medical ultrasonic nebulizer (Beijing Yadu Technology Co., Ltd., with Beijing Pharmaceutical Supervision Certificate No.: Beijing 99 No. 223145); UV-2450 UV-visible spectrophotometer (Shimadzu Co., Japan); UX420S Animal balance (Shimadzu Co., Japan); and milli electronic balance (Sartorius Co., Germany).
The mice were adaptively fed for 3 days followed by screening. The ultrasonic nebulizer was preheated, and added with 40 ml of fresh aqueous ammonia solution (12.5%). The mice were placed in 1000 ml beaker. The beaker's mouth was sealed with a plastic wrap with two holes opened (one for inserting the ultrasonic atomizer outlet tube, and the other for ventilation). Ammonia was continuously introduced by the ultrasonic atomizer at its minimal power for 60 seconds, followed by stopping the ultrasonic atomizer immediately. The plastic wrap was quickly opened to allow the ammonia to diffuse naturally. Mice which coughed for less than 10 times or more than 80 times within three minutes were excluded. The qualified mice were randomly grouped into blank control group, compound of the present invention group, and codeine phosphate-positive control group. The above groups were intragastrically administrated with the drugs according to body weight, and the blank control group was administrated with equal volume of distilled water. The administration was carried out once a day for five consecutive days. The mice were placed one by one in an inverted 5 L sealed glass bell jar for one hour after the last administration, and treated by a constant pressure ammonia spray stimulation for 15 seconds (10 mL of ammonia spray/time for one mouse, and changed each time). After the stimulation stopped, the mice were taken out to observe the latentperiod of the cough of the mice (the time from spraying starting to coughing starting) and the number of coughs within 2 minutes (cough was identified by severely contracting the abdominal muscles and opening the mouth, with a slight cough sound sometimes).
(§2) Statistical method: data analysis of the experimental data was carried out with SPSS 10.0 statistical software, and t-test was used for comparison between groups.

The test system of test [3] is citric acid-induced cough in guinea pigs. As to the kind of experiment: Citric acid-induced cough test. Format: in vivo. The note with it: x ± s.
Text: Test animals: Guinea pigs (body weight 180-220 g, half male and half female), purchased from Beijing Vital River Laboratory Animal Technology Co., Ltd.
as §1
The devices are the same as in Test Example 1.
The guinea pigs were adaptively fed for 1 day followed by preliminary screening.
The guinea pigs were placed one by one in an inverted 5 L sealed glass bell jar, and treated by a constant pressure spray stimulation (17.5% citric acid solution) for one minute. The number of coughs within 5 minutes from the spray was recorded, and the guinea pigs which coughed more than 10 times were chosen as qualified test animals. The qualified guinea pigs were randomly grouped into blank control group, compound of the present invention group, and codeine phosphate-positive control group. The above groups were intragastrically administrated with the drugs according to body weight, and the blank control group was administrated with equal volume of distilled water. The intragastrical administration was carried out for five consecutive days. The guinea pigs were placed in an inverted 5 L sealed glass bell jar for one hour after the last administration, and treated by the nebulizer for 30 seconds. The latentperiod of the cough of the guinea pigs (the time from starting spraying of 17.5% citric acid to coughing starting) and the number of coughs within 5 minutes were observed.
as §2

Setting [4] is: 20 mg·kg^-1 intragastric for five days, phenol red i.p. 30 min after last administration.
[5] abbreviates: 20 mg·kg^-1 intragastric once a day for five days, ammonia spray 1 h after last administration.
Where [6] appears, read: 20 mg·kg^-1 intragastric for five days, 17.5% citric acid spray 1 h after last administration.
Where [7] appears, read: positive control dose 15 mL·kg^-1 intragastric once a day for five days.

Marks after values point to notes of the source that are not given here.

These results are taken from US11008360B2, “Indoleacetic acid derivative and preparation method and pharmaceutical use thereof” (Institute of Chinese Materia Medica, China Academy of …, priority 2017, dated 2021).

With `O=C(O)CC[C@@H](NC(=O)Cc1cn([C@@H]2O[C@H](CO)[C@@H](O)[C@H](O)[C@H]2O)c2ccc(Cl)cc12)C(=O)O` [Compound 10], the “Tracheal phenol red excretion amount” value in test [1] (setting [4]) was found to be 0.962 ± 0.101 mg/L. Further, in test [2] (setting [5]), the Latentperiod is listed as 39.4 ± 4.1 s and the Number of coughs is listed as 19.4 ± 6.3 times/2 min. In test [3] (setting [6]), this molecule showed a Latentperiod of 139 ± 41 s.

Regarding `COc1ccc2c(c1)c(CC(=O)N[C@H](CC(=O)O)C(=O)O)cn2[C@@H]1O[C@H](CO)[C@@H](O)[C@H](O)[C@H]1O` [Compound 4], in test [1] (setting [4]), the “Tracheal phenol red excretion amount” value was determined as 1.072 ± 0.221 mg/L. Also, in test [2] (setting [5]), the Latentperiod amounted to 40.3 ± 5.5 s and the Number of coughs was 18.5 ± 4.3 times/2 min. This molecule gave a Latentperiod in test [3] (setting [6]) of 120 ± 55 s.

For `Cl.N` [Ammonium chloride, reference compound], the “Tracheal phenol red excretion amount” value in test [1] (positive control dose 1000 mg·kg^-1 intragastric for five days) came to 1.068 ± 0.224 mg/L.

On to `Cc1ccc2c(c1)c(CC(=O)N[C@H](CC(=O)O)C(=O)O)cn2[C@@H]1O[C@H](CO)[C@@H](O)[C@H](O)[C@H]1O` [Compound 3, (2-(5-methyl-1-((2R,3R,4S,5S,6R)-3,4,5-trihydroxy-6-(hydroxymethyl)tetrahydro-2H-pyran-2-yl)-1H-indol-3-yl)acetyl)-D-aspartic acid], for which the “Tracheal phenol red excretion amount” value in test [1] (setting [4]) turned out to be 0.971 ± 0.114 mg/L. Besides, in test [2] (setting [5]), the Latentperiod was 38.1 ± 5.3 s and the Number of coughs was determined as 20.7 ± 5.2 times/2 min. Further, in test [3] (setting [6]), the Latentperiod is 128 ± 65 s.

As to `O=C(O)C[C@@H](NC(=O)Cc1cn([C@@H]2O[C@H](CO)[C@@H](O)[C@H](O)[C@H]2O)c2ccccc12)C(=O)O` [Compound 1, (2-(1-((2R,3R,4S,5S,6R)-3,4,5-trihydroxy-6-(hydroxymethyl)tetrahydro-2H-pyran-2-yl)-1H-indol-3-yl)acetyl)-D-aspartic acid], the “Tracheal phenol red excretion amount” value in test [1] (setting [4]) was found to be 1.125 ± 0.129 mg/L. Besides, in test [2] (setting [5]), the Latentperiod came to 45.8 ± 8.2 s and the Number of coughs is reported as 19.1 ± 10.7 times/2 min. In addition, the Latentperiod in test [3] (setting [6]) is reported as 147 ± 89 s.

In test [2] (setting [7]), `COc1ccc2c3c1O[C@H]1[C@@H](O)C=C[C@H]4[C@@H](C2)N(C)CC[C@@]341` [Codeine phosphate, reference compound] displayed a Latentperiod of 48.3 ± 5.9 s and a Number of coughs of 14.2 ± 6.5 times/2 min. In test [3] (positive control dose 15 mL·kg^-1 intragastric for five days, n=18), this molecule yielded a Latentperiod of 107 ± 41 s.

Regarding `COc1cccc2c(CC(=O)N[C@H](CC(=O)O)C(=O)O)cn([C@@H]3O[C@H](CO)[C@@H](O)[C@H](O)[C@H]3O)c12` [Compound 8], in test [1] (setting [4]), the “Tracheal phenol red excretion amount” value turned out to be 1.142 ± 0.132 mg/L. Besides, in test [2] (setting [5]), the Latentperiod turned out to be 39.6 ± 5.5 s and the Number of coughs turned out to be 19.2 ± 4.7 times/2 min. Moreover, in test [3] (setting [6]), the Latentperiod turned out to be 110 ± 32 s.

For `Cc1cccc2c(CC(=O)N[C@H](CC(=O)O)C(=O)O)cn([C@@H]3O[C@H](CO)[C@@H](O)[C@H](O)[C@H]3O)c12` [Compound 7], in test [1] (setting [4]), the “Tracheal phenol red excretion amount” value amounted to 0.956 ± 0.270 mg/L. For the same molecule, in test [2] (setting [5]), the Latentperiod is on record as 42.1 ± 7.2 s and the Number of coughs was determined as 18.6 ± 8.5 times/2 min. The same molecule gave a Latentperiod in test [3] (setting [6]) of 130 ± 22 s.

Take `O=C(O)CC[C@@H](NC(=O)Cc1cn([C@@H]2O[C@H](CO)[C@@H](O)[C@H](O)[C@H]2O)c2ccccc12)C(=O)O` [Compound 2, (2-(1-((2R,3R,4S,5S,6R)-3,4,5-trihydroxy-6-(hydroxymethyl)tetrahydro-2H-pyran-2-yl)-1H-indol-3-yl)acetyl)-D-glutamic acid]: the “Tracheal phenol red excretion amount” value in test [1] (setting [4]) amounted to 0.988 ± 0.211 mg/L. In test [2] (setting [5]), this molecule yielded a Latentperiod of 48.5 ± 9.4 s and a Number of coughs of 17.3 ± 4.6 times/2 min. The Latentperiod in test [3] (setting [6]) worked out at 98 ± 59 s.

`Cc1ccc2c(c1)c(CC(=O)N[C@H](CCC(=O)O)C(=O)O)cn2[C@@H]1O[C@H](CO)[C@@H](O)[C@H](O)[C@H]1O` [Compound 9]: the “Tracheal phenol red excretion amount” value in test [1] (setting [4]) is 1.089 ± 0.139**^1 mg · L^−1. In test [2] (setting [5]), this molecule returned a Latentperiod of 38.1 ± 4.7 s and a Number of coughs of 23.8 ± 5.1 times/2 min. In test [3] (setting [6]), this molecule displayed a Latentperiod of 121 ± 47 s.

For `O=C(O)C[C@@H](NC(=O)Cc1cn([C@@H]2O[C@H](CO)[C@@H](O)[C@H](O)[C@H]2O)c2ccc(Cl)cc12)C(=O)O` [Compound 5, (2-(5-chloro-1-((2R,3R,4S,5S,6R)-3,4,5-trihydroxy-6-(hydroxymethyl)tetrahydro-2H-pyran-2-yl)-1H-indol-3-yl)acetyl)-D-aspartic acid], the “Tracheal phenol red excretion amount” value in test [1] (setting [4]) was 0.831 ± 0.107 mg/L. In test [2] (setting [5]), this molecule gave a Latentperiod of 42.6 ± 11.2 s and a Number of coughs of 19.6 ± 5.1 times/2 min. Besides, in test [3] (setting [6]), the Latentperiod was found to be 110 ± 32 s.

In the case of `O=C(O)C[C@@H](NC(=O)Cc1cn([C@@H]2O[C@H](CO)[C@@H](O)[C@H](O)[C@H]2O)c2ccc(Br)cc12)C(=O)O` [Compound 6, (2-(5-bromo-1-((2R,3R,4S,5S,6R)-3,4,5-trihydroxy-6-(hydroxymethyl)tetrahydro-2H-pyran-2-yl)-1H-indol-3-yl)acetyl)-D-aspartic acid], the “Tracheal phenol red excretion amount” value in test [1] (setting [4]) is 0.888 ± 0.145 mg/L. The Latentperiod in test [2] (setting [5]) is 40.7 ± 5.2 s; in test [3] (setting [6]), 127 ± 52 s. The molecule also returned a Number of coughs in test [2] (setting [5]) of 21.8 ± 7.3 times/2 min.
